Measurements reported in US20230348447A1, “OXAZOLIDINONE COMPOUNDS, LIPOSOME COMPOSITIONS COMPRISING OXAZOLIDINONE COMPOUNDS AND METHOD OF USE THEREOF” (priority 2020, published 2023).
Converted amounts (≈) assume the structure as drawn. Like-named read-outs stand apart in the source and are kept apart here.

Key:
[1] = from drugbank.ca; cited from earlier work
M.tb H37Rv = assay: Broth microdilution MIC with Alamar blue endpoint (MABA) / OD600; assay type: cell-based, Mycobacterium tuberculosis; conditions: Mycobacterium tuberculosis, H37RV
M.tb Erdman = assay: as above; assay type: cell-based, Mycobacterium tuberculosis; conditions: Mycobacterium tuberculosis
M. kansasii = assay: MIC in nontuberculosis mycobacteria (microbroth dilution, resazurin); assay type: cell-based; conditions: Mycobacterium kansasii
M. chelonae = assay: as above; assay type: cell-based, Mycobacterium chelonae; conditions: Mycobacteroides chelonae
M. massiliense = assay: as above; assay type: cell-based, Mycobacterium massiliense
[2] = Aqueous solubility (visually clear solutions); assay type: physicochemical
Protocol: Working stocks of the compounds were prepared as follows: to an aliquot of a compound (free base) in a powder form 1-1.5 equivalents of HCl in the form of 1 N aqueous solution was added, and the mixture was vortexed until homogeneity. To the resulting cake or syrup, water was added typically to the final 10 mg/ml, and complete dissolution was observed. In some instances, 0.95 equivalents of HCl were added to the free base form of the drug, and 20 mg/ml stock solution was prepared.
Aqueous solubility of the compounds of the present disclosure is illustrated by the following observations of obtaining visually clear solutions: […]

MRSA ATCC BAA-1556 [3] = conditions: cited from earlier work
M. abscessus = assay: MIC in nontuberculosis mycobacteria (microbroth dilution, resazurin); assay type: cell-based, Mycobacterium abscessus; conditions: Mycobacteroides abscessus, read-out: MIC
[4] = system: mitochondrial protein synthesis (COX-1/SDH-A ratio) in H9C2 rat heart myoblast cells; assay: Mitochondrial protein synthesis inhibition (MitoBiogenesis in-cell ELISA, COX-1/SDH-A); assay type: cell-based; conditions: 120 h, five days, read-out: MPS IC50
MRSA 880 NR-49120 = assay: MIC against methicillin resistant Staphylococcus aureus (MRSA); conditions: read-out: MRSA MIC, 880 NR-49120
MRSA ATCC BAA-1556 [5] = assay: as above
MRSA ATCC 43300 = assay: as above; conditions: read-out: MRSA MIC, ATCC 43300
M.avium = assay: MIC in nontuberculosis mycobacteria (microbroth dilution, resazurin); assay type: cell-based, Mycobacterium avium; conditions: Mycobacterium avium, read-out: MIC
[6] = read-out: Mycobacterium tuberculosis MIC, H37Rv
[7] = ERDMAN, read-out: Mycobacterium tuberculosis MIC, Erdman

CC(=O)NC[C@H]1CN(c2ccc(N3CCSCC3)c(F)c2)C(=O)O1 [Sutezolid, reference compound]
known aqueous solubility [1]: 237 µg/mL
MIC (M.tb H37Rv; [6]): 0.5 µg/mL (≈ 1.41 µM)
MIC (M.tb Erdman; [7]): 0.5 µg/mL (≈ 1.41 µM)

Cn1nnc(-c2ccc(-c3ccc(N4C[C@H](CO)OC4=O)cc3F)cn2)n1 [Tedizolid, reference compound]
MIC (M. kansasii): 0.125 µg/mL (≈ 0.338 µM)
MIC (M. kansasii; M. kansasii strain 662, read-out: MIC): > 32 µg/mL
MIC (M. kansasii; M. kansasii strain 732, read-out: MIC): 0.25 µg/mL (≈ 0.675 µM)
MIC (M. kansasii; M. kansasii strain 824, read-out: MIC): 0.25 µg/mL (≈ 0.675 µM)
MIC (M. kansasii; M. kansasii strain MK13D6, read-out: MIC): 0.25 µg/mL (≈ 0.675 µM)
MIC (M. chelonae; M. chelonae strain 49, read-out: MIC): 0.25 µg/mL (≈ 0.675 µM)
MIC (M. chelonae; M. chelonae strain 69, read-out: MIC): 2 µg/mL (≈ 5.4 µM)
MIC (M. chelonae; M. chelonae strain 35752): 0.125 µg/mL (≈ 0.338 µM)
MIC (M. massiliense; M. massiliense strain M154): 0.06 µg/mL (≈ 0.162 µM)
activity relative to AKG-28 and AKG-38 (M. massiliense; M. massiliense, three strains): more active in all three strains evaluated
MIC (M. massiliense; Mycobacteroides abscessus, CIP108297, M. massiliense strain CIP 108297, read-out: MIC): 0.25 µg/mL (≈ 0.675 µM)
MIC (M. massiliense; Mycobacteroides abscessus, M. massiliense strain CRM0019, read-out: MIC): 0.06 µg/mL (≈ 0.162 µM)
solubility in water for gradient-assisted liposome loading [2]: not soluble enough in water
MRSA MIC described in U.S. Pat. No. 7,816,379 (MRSA ATCC BAA-1556 [3]): 0.5 µg/mL
MIC (M. abscessus; M. abscessus sbsp. abscessus strain 21): 0.5 µg/mL (≈ 1.35 µM)
MIC (M. abscessus; M. abscessus sbsp. abscessus strain 1513): 4 µg/mL (≈ 10.8 µM)
MIC (M. abscessus; M. abscessus sbsp. abscessus strain 1948): 0.5 µg/mL (≈ 1.35 µM)
IC50 [4]: 0.143 µg/mL (≈ 0.386 µM)
MIC (MRSA 880 NR-49120): 0.206 µg/mL (≈ 0.556 µM)
MIC (MRSA ATCC BAA-1556 [5]; read-out: MRSA MIC): 0.206 to 0.617 µg/mL (≈ 0.556 to 1.67 µM)
MIC (MRSA ATCC BAA-1556 [5]; read-out: MRSA MIC, ATCC BAA-1556): 0.617 µg/mL (≈ 1.67 µM)
MIC (MRSA ATCC 43300): 0.617 µg/mL (≈ 1.67 µM)
MIC (M.avium; M. avium sbsp. avium strain 2285 R): 0.25 µg/mL (≈ 0.675 µM)
MIC (M.avium; M. avium sbsp. avium strain 2285 S): 0.25 µg/mL (≈ 0.675 µM)
MIC (M.avium; M. avium sbsp. avium strain 3993): 0.25 µg/mL (≈ 0.675 µM)
MIC (M.tb H37Rv; as determined in Example 2, read-out: MIC (H37Rv)): 0.25 µg/mL (≈ 0.675 µM)
MIC (M.tb H37Rv; [6]): 0.25 µg/mL (≈ 0.675 µM)
MIC (M.tb Erdman; [7]): 0.25 µg/mL (≈ 0.675 µM)
MIC (M.tb Erdman; M. tuberculosis Erdman / H37Rv, strains not separated, read-out: MIC): 0.25 µg/mL (≈ 0.675 µM)
